Laboratory results reported in patent US20080227096A1, “Assay for response to proteasome inhibitors” (Centenary Institute of Cancer Medicine and Cell Biology, priority 2006, published 2008).
Read-outs that look alike come from different tables or passages of the source.

How the values were obtained:
relapsed myeloma [1] = details: patients with relapsed myeloma, randomised trial, cited from earlier work
refractory myeloma = details: cited from earlier work
H929 myeloma cells = assay: Bortezomib resistance (proliferation inhibition) assay, H929; assay type: cell-based, human
Experimental: (§1) Cytotoxicity assays were performed essentially as described previously (16). For myeloma cell lines, some modifications were made due to their slow growth rate, non-adherence to the culture plate and sensitivity to sparse plating. Briefly, cells were seeded at 10,000 per well in 96-well plates in RPMI-1640 without phenol red (which interferes with detection of fluorescence). Bortezomib (Millennium Pharmaceuticals; Johnson & Johnson Pharmaceuticals) was applied in a concentration series along the long plate axis. After 5 days of proliferation, cells were permeabilised in situ by adding 5% by volume of 21 X Triton X-100 buffer (10 mM TrisHCl pH 7.4, 5 mM EDTA, 0.1% Triton X-100) and Sybr I Green (Invitrogen) 1:4000. The lysate was mixed thoroughly with a multi-channel pipette. One cycle of freeze and thaw was performed to ensure complete lysis. The fluorescence, measured on a plate reader (Wallac), was proportional to the number of viable cells at the end point. The IC50 was determined as the concentration of drug that inhibited proliferation to 50% of the untreated controls (see FIG. 5A-5E).
(§2) H929 and RPMI8226 myeloma cells were transduced with virus as follows. […] Total XBP-1 and sensitivity to Bortezomib was determined as previously described (Example 1.1 and Example 2.1, respectively).

P-glycoprotein = P-glycoprotein (Homo sapiens, UniProt P08183); details: cited from earlier work
RPMI8226 myeloma cells = assay: Bortezomib resistance (proliferation inhibition) assay, RPMI8226; assay type: cell-based, human
Experimental: Cytotoxicity assays were performed essentially as described previously (16). For myeloma cell lines, some modifications were made due to their slow growth rate, non-adherence to the culture plate and sensitivity to sparse plating. Briefly, cells were seeded at 10,000 per well in 96-well plates in RPMI-1640 without phenol red (which interferes with detection of fluorescence). Bortezomib (Millennium Pharmaceuticals; Johnson & Johnson Pharmaceuticals) was applied in a concentration series along the long plate axis. […] The fluorescence, measured on a plate reader (Wallac), was proportional to the number of viable cells at the end point. […]
(§3) Briefly, myeloma cell lines, prostate cancer cell lines and lymphoid cell lines were cultured in RPMI-1640 supplemented with 10% foetal calf serum, 100 units/mL penicillin G and 100 μg/mL streptomycin. […] Quantitation of spliced and unspliced XBP-1 and determination of sensitivity to Bortezomib was carried out as previously described (Examples 1.1, 1.2 and 2.1, respectively).
as §2

[2] = test system: prostate cancer cell line LNCaP; assay: Bortezomib resistance (proliferation inhibition) assay, LNCaP; assay type: cell-based, human; details: compared with other non-myeloma cell lines, 5 days proliferation
Experimental: as §1, with “The IC50 was determined as the concentration of drug that inhibited proliferation to 50% of the untreated controls (see FIG. 5A-5E).” left out
as §3

myeloma cells = details: direct inhibition of NF-κB; cited from earlier work
myeloma [3] = details: phase III randomised control trial; cited from earlier work
P-glycoprotein (P-gp) = P-glycoprotein (P-gp) (Homo sapiens, UniProt P08183); details: cyclosporin D derivative; cited from earlier work
relapsed myeloma [4] = details: single agent, relapsed disease; cited from earlier work
myeloma [5] = details: cited from earlier work

P-glycoprotein (P-gp), sequence (P08183 whole entry): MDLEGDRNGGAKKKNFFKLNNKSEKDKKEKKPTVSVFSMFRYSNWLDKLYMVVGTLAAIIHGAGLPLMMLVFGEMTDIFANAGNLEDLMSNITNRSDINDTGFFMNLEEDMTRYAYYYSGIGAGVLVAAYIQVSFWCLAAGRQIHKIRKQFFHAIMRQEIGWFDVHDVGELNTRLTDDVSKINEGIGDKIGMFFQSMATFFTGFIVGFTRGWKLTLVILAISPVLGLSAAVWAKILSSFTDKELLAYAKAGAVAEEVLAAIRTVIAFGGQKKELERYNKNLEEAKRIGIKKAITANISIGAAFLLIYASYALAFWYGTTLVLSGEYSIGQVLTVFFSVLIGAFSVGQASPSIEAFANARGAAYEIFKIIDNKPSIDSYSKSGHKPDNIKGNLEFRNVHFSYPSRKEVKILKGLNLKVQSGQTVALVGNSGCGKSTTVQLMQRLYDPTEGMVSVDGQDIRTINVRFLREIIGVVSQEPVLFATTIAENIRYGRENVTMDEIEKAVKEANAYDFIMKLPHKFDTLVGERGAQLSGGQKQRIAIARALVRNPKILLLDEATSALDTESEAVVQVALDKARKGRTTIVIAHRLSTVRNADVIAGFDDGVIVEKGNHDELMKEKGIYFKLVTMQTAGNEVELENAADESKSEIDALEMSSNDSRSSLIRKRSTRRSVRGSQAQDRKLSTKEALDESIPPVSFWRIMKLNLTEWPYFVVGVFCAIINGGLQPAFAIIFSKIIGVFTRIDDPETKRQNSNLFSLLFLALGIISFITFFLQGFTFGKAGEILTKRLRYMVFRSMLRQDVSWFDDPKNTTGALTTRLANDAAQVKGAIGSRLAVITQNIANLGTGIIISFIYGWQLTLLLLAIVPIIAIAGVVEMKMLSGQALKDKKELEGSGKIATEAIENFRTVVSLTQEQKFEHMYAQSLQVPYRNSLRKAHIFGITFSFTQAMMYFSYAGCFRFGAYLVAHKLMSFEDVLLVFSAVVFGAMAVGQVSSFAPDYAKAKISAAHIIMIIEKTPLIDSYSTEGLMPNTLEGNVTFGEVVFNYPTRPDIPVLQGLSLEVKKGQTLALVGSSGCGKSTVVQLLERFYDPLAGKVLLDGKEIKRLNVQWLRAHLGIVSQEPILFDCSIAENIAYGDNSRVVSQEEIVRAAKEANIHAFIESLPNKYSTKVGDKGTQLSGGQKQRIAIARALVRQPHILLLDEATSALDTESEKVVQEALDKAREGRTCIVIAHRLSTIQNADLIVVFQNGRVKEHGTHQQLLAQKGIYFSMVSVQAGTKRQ
P-glycoprotein, sequence (P08183 whole entry): as above

Molecule: CC(C)C[C@H](NC(=O)[C@H](Cc1ccccc1)NC(=O)c1cnccn1)B(O)O [Bortezomib]
- overall response rate (relapsed myeloma [1]; p<0.001): 38%
- complete response rate (relapsed myeloma [1]): 6%
- one-year survival rate (relapsed myeloma [1]): 80%
- side effects (refractory myeloma; a significant proportion of patients): fatigue, nausea, diarrhoea, thrombocytopenia, anaemia and peripheral neuropathy
- overall response rate (refractory myeloma; refractory cases, phase I and II trials): ~30%
- primary resistance, proportion of relapsed patients (refractory myeloma; relapsed patients): about 60%
- change of sensitivity to Bortezomib after shRNA knockdown of XBP-1 (H929 myeloma cells; H929 cells, XBP-1 knockdown): decrease in sensitivity to Bortezomib but the change was modest
- sensitivity of cell line to Bortezomib (rank) (H929 myeloma cells; myeloma cell lines, 5 days proliferation): most sensitive to Bortezomib
- P-glycoprotein substrate (P-glycoprotein): not a significant P-glycoprotein substrate
- change of sensitivity to Bortezomib after shRNA knockdown of XBP-1 (RPMI8226 myeloma cells; RPMI8226 cells, XBP-1 knockdown): No such effect on sensitivity to Bortezomib
- change of sensitivity to Bortezomib after overexpression of spliced or unspliced XBP-1 cDNA (RPMI8226 myeloma cells; RPMI8226 transfectants vs vector control): only a small effect on sensitivity
- sensitivity of cell line to Bortezomib (rank) [2]: most sensitive to Bortezomib of the non-myeloma cell lines

Molecule: O=C(Nc1cc(Cl)cc2c1[nH]c1cnccc12)c1cccnc1 [PS-1145]
- inhibition of proliferation of myeloma cells (myeloma cells): insufficient to completely inhibit the proliferation

Molecule: C/C=C/C[C@@H](C)C(=O)[C@H]1C(=O)N[C@@H](C(C)C)C(=O)N(C)CC(=O)N(C)[C@@H](CC(C)C)C(=O)N[C@@H](C(C)C)C(=O)N(C)[C@@H](CC(C)C)C(=O)N[C@@H](C)C(=O)N[C@H](C)C(=O)N(C)[C@@H](CC(C)C)C(=O)N(C)[C@@H](CC(C)C)C(=O)N(C)[C@@H](C(C)C)C(=O)N1C [Valspodar]
- toxicity on addition of the P-gp inhibitor (myeloma [3]): increased toxicity
- potency of inhibitory activity on P-gp (relative) (P-glycoprotein (P-gp)): 5 times

Molecule: O=C1CCC(N2C(=O)c3ccccc3C2=O)C(=O)N1 (stereo not drawn) [thalidomide]
- overall response rate (relapsed myeloma [4]): ~32%
- patients with at least very good partial response or complete response (relapsed myeloma [4]): approximately 10%

Molecule: interferon-α
- effect of maintenance therapy on response and survival (myeloma [5]): marginal effect in terms of prolonging response and survival
